For test [1], the system named is C57BL/6J mice. In words: LPS-induced acute lung inflammation model: lung histopathology. The note with it: SCA-744 60 mg/kg i.p. It is filed as in vivo. As for the experimental part:
Acute lung inflammation was induced by intratracheal administration of 100 μg LPS (Escherichia coli O111:B4; Sigma Aldrich, St. Louis, MO, USA) dissolved in 60 μl sterile phosphate buffered saline (PBS) under ketamine (120 mg/kg ip.; Calypsol, Gedeon Richter Plc., Budapest, Hungary) and xylazine (6 mg/kg ip.; Sedaxylan, Eurovet Animal Health B.V., Bladel, Netherlands) anaesthesia. 24 h after administration, respiratory function parameters were assessed, and lung samples were harvested for histopathological evaluation.
SCA-744 (60 mg/kg) and its vehicle were injected intraperitoneally (i.p.), 24 h, 12 h, 20 min before and 12 h after intratracheal administration of LPS. […] 24 h and 20 min before LPS treatment. Respiratory function measurement was performed 24 h after LPS administration
Excised lung tissue samples were formalin-fixed (6%) and embedded in paraffin, 5 μm sections cut and stained with haematoxylin-eosin for histological analysis. Assessment of airway inflammation was performed in a blind manner in order to evaluate perivascular/peribronchial edema, neutrophil, macrophage and lymphocyte inflammatory cell infiltration as well as goblet cell metaplasia on a semiquantitative scale ranging from 0 to 3 in 2 fields of vision from three depths of lung tissue from each animal.

The subject of test [2] is NQO1. In words: NQO1 immunoblot in HeLa cells. Type of test: cell-based, human. The note with it: 48 hours. As for the experimental part: A specific anti-oxidative effect or activity of a compound is proven, if induces the expression of NQO1 in mammalian cells to a higher level than over vehicle treated cells, preferably by ~3 fold when the compound is used at 500 μM, as determined by a standard assay: Semi-quantitative western blot analysis. HeLa cells are treated with vehicle, 50, 100 and 500 μM of the compound for 48 h and lysed in Triton X-100 extraction buffer (50 mM HEPES [pH 7.4], 140 mM NaCl, 1% Triton X-100, 1 mM EDTA, 0.3 mM DTT and Complete Protease Inhibitor Cocktail). 25 μg of whole cell extract are separated on a 10% SDS-PAGE, after transfer to a PVDF membrane (Bio-Rad), proteins detected by use of standard immunoblotting procedures. […] For the analysis and quantification of the protein levels, Gel Analyzer from ImageJ (National Institute of Health, USA: http://imagej.nih.gov/ij) is used.
To verify experimentally the anti-oxidative effect of SCA-744, the induction of one of these three genes, NQO1, a major anti-oxidative enzyme was investigated. […] In fact, no NQO1 was detected in control cells under the applied experimental conditions, while a prominent signal was induced even at 50 μM, the lowest concentration of SCA-744 tested, that increased by increasing SCA-744 concentrations (approximately 3.5 fold higher signal at 500 μM). […]

The test system of test [3] is Osteopontin (OPN). In words: 15N-1H HSQC NMR binding to osteopontin. As for the experimental part: In order to verify the predicted heparan sulfate mimicking activity of SCA-744, its physical interaction was probed with a prototypical HS-binding protein Osteopontin (OPN), a component of the extracellular matrix (ECM). To this end, NMR spectroscopy was used to directly probe the interaction and map the location of the interaction site along the protein backbone. The experimental strategy was as follows: First, ^15N-labelled OPN was prepared following well-established molecular biology technology techniques. Individual residue positions are directly monitored via the so-called ^15N-^1H Heteronuclear Single-Quantum Coherence (HSQC) spectroscopy, where individual cross peaks in the two-dimensional (2D) frequency spectrum corresponds to individual residue positions (amino acids) of the protein. Ligand binding changes the chemical environment of residues located in the binding site and leads to a change in the HSQC spectrum. Since the signal assignment is available, the residue positions which are affected by ligand binding can easily be identified by comparing HSQC spectra of the apo (ligand-free) and ligand-bound state of the protein (FIG. 7A). […] It is very convenient to analyze the chemical shift changes (induced by ligand binding) as a function of residue positions (FIG. 7B,C). Residues that display the largest chemical shift changes are typically part of the binding interface. […] Therefore, it can be concluded that SCA-744 and HS share the same ligand interaction sites and therefore are in competition for binding.

The subject of test [4] is LDL-R. Briefly: LDL-R immunofluorescence microscopy in HeLa cells. Type of test: cell-based, human. Particulars: 50 and 500 μM, 48 hours. As to the method: In another set of experiments, HeLa cells were treated the same way (50 and 500 μM of SCA-744 for 48 hours). Cells were fixed with 4% paraformaldehyde solution for 10 min at RT and permeabilized with 0.1% Triton X-100 for 15 min at RT and analysed by immunofluorescence microscopy using the same anti-human LDLR antibody employed for the immunoblotting. This detection method was more sensitive, and indicated the presence of LDL-R even in control cells.

Entries after “also recorded” stand apart in the source; their conditions may differ.

For the compound `O=S(=O)(O)c1cc2c(O)c(c1)Cc1cc(S(=O)(=O)O)cc(c1O)Cc1cc(S(=O)(=O)O)cc(c1O)Cc1cc(S(=O)(=O)O)cc(c1O)C2` [SCA-744, 4-sulfocalix[4]arene], the “pathological changes in perivascular oedema and perivascular/peribronchial infiltration by neutrophils and macrophages” value in test [1] is given as “prevented or greatly reduced the pathological changes”. Besides, the “semiquantitative pathology scores (oedema, granulocytes, macrophages, composite; scale 0 to 3)” value in test [1] (dexamethasone 5 mg/kg ip.) is given as “not statistically significantly different from untreated controls”. Also, the “NQO1 immunoblot signal increase” value in test [2] (HeLa, 500 μM, prominent signal already at 50 μM, none in control) is reported as “approximately 3.5 fold”. Moreover, the “NQO1 protein expression (immunoblot)” value in test [2] (HeLa, 50, 100 and 500 μM) is listed as “significantly increases the expression; also recorded: very significant up-regulation”. Further, the “binding to OPN (HSQC spectra ligand-free vs ligand-bound)” value in test [3] (15N-labelled OPN) is on record as “binds to a heparan sulfate binding protein, osteopontin; also recorded: unambigious proof for SCA-744 binding to OPN”. Besides, in test [3] (HS compared with SCA-744), the “binding sites on OPN (chemical shift changes by residue)” value was “overlapping binding sites”. For the same compound, the “level of LDL-R (immunofluorescence, semi-quantitative)” value in test [4] is listed as “significantly increased the level of LDL-R in a concentration dependent manner”.

Values taken from patent US12714682B2, “Calixarene compounds and uses thereof” (UNIVERSITÄT WIEN, priority 2019, dated 2026).
